According to the supplement of paper PMC11451515:

Columns and labels:
Conditions in all cases: 48 h
NOMO1 [1] = experiment: AUC of viability dose-response curve (% viability x log10 dose units); higher = less sensitive
Summary of the method: (§1)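 Leukemia cells adapted to each medium were seeded at 500 or 1000 cells/well in 1536-well plates and dosed with library compounds in DMSO at 11 threefold doses from 47 μM to 0.79 nM for 48 h at 37°C. CellTiter-Glo One luminescence was normalised per plate to DMSO and cell-free wells, then fitted with a four-parameter log-logistic model over log10 doses. Area under the curve was taken from this fit by the trapezoidal rule, with curves above full viability scaled and curves failing quality control removed.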

P12-Ichikawa [2] = experiment: as above
Summary of the method: as §1

SEM cells [3] = experiment: as above
Summary of the method: as §1

NOMO1 [4] = experiment: cell viability relative to DMSO control; higher = less cytotoxic
Summary of the method: (§2)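 Library compounds in DMSO were pin-dosed into 1536-well plates (5 μl) holding NOMO1 or SEM (500 cells/well) or P12-Ichikawa (1000 cells/well) leukemia cells, across an 11-point threefold series of 47 μM to 0.79 nM. Each cell line had been adapted for at least four passages in each medium. CellTiter-Glo One luminescence was read after 48 h at 37°C. Viability is the per-plate percentage relative to DMSO wells, with cell-free wells as background.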

P12-Ichikawa [5] = experiment: as above
Summary of the method: as §2

SEM cells [6] = experiment: as above
Summary of the method: as §2

COc1ccc([C@@H]2CNC(=O)C2)cc1OC1CCCC1
AUC of viability dose-response curve
Conditions	NOMO1 [1]	P12-Ichikawa [2]	SEM cells [3]
HPLM + 10% dialyzed FBS	452	466	454
RPMI 5 mM glucose + 10% FBS	467	456	458
RPMI 5 mM glucose + 10% dialyzed FBS	468	458	459

cell viability [%]
Conditions	NOMO1 [4]	P12-Ichikawa [5]	SEM cells [6]
HPLM + 10% dialyzed FBS, 0.000781 µM	106	103	83.1
HPLM + 10% dialyzed FBS, 0.00234 µM	108	107	90.7
HPLM + 10% dialyzed FBS, 0.00702 µM	108	104	93.9
HPLM + 10% dialyzed FBS, 0.0211 µM	111	110	102
HPLM + 10% dialyzed FBS, 0.0632 µM	117	109	103
HPLM + 10% dialyzed FBS, 0.19 µM	114	111	103
HPLM + 10% dialyzed FBS, 0.569 µM	136	113	96.2
HPLM + 10% dialyzed FBS, 1.71 µM	114	109	114
HPLM + 10% dialyzed FBS, 5.12 µM	117	117	114
HPLM + 10% dialyzed FBS, 15.4 µM	118	114	111
HPLM + 10% dialyzed FBS, 46.1 µM	116	109	93.2
RPMI 5 mM glucose + 10% FBS, 0.000781 µM	112	101	76.9
RPMI 5 mM glucose + 10% FBS, 0.00234 µM	111	104	101
RPMI 5 mM glucose + 10% FBS, 0.00702 µM	106	110	92.3
RPMI 5 mM glucose + 10% FBS, 0.0211 µM	96.7	99.8	93.7
RPMI 5 mM glucose + 10% FBS, 0.0632 µM	114	97.1	100
RPMI 5 mM glucose + 10% FBS, 0.19 µM	107	113	98.6
RPMI 5 mM glucose + 10% FBS, 0.569 µM	104	117	92
RPMI 5 mM glucose + 10% FBS, 1.71 µM	112	105	95.5
RPMI 5 mM glucose + 10% FBS, 5.12 µM	99.7	117	103
RPMI 5 mM glucose + 10% FBS, 15.4 µM	105	118	95.6
RPMI 5 mM glucose + 10% FBS, 46.1 µM	107	108	98
RPMI 5 mM glucose + 10% dialyzed FBS, 0.000781 µM	92.6	99.1	97.1
RPMI 5 mM glucose + 10% dialyzed FBS, 0.00234 µM	101	106	94.3
RPMI 5 mM glucose + 10% dialyzed FBS, 0.00702 µM	119	113	97.9
RPMI 5 mM glucose + 10% dialyzed FBS, 0.0211 µM	105	107	70.6
RPMI 5 mM glucose + 10% dialyzed FBS, 0.0632 µM	114	118	97.4
RPMI 5 mM glucose + 10% dialyzed FBS, 0.19 µM	115	110	103
RPMI 5 mM glucose + 10% dialyzed FBS, 0.569 µM	105	114	104
RPMI 5 mM glucose + 10% dialyzed FBS, 1.71 µM	115	103	106
RPMI 5 mM glucose + 10% dialyzed FBS, 5.12 µM	112	113	99.6
RPMI 5 mM glucose + 10% dialyzed FBS, 15.4 µM	105	111	97.6
RPMI 5 mM glucose + 10% dialyzed FBS, 46.1 µM	119	118	90.9
